Data: patent publication US10934310B2, “Inhibitors of Bruton's tyrosine kinase and method of their use” (JANSSEN PHARMACEUTICA NV, priority 2015, dated 2021)

molecular target: unphosphorylated-BTK kinase domain (UP-BTK), GST-tagged human BTK (389-659aa) (Homo sapiens (Human), UniProt Q06187); assay: BTK Kinase Lanthascreen Binding Assay; details: compound, 50 nM Tracer 236, 2 nM anti-GST antibody, 60 minutes; pIC50 = negative log of the IC50 in molar
Method: BTK Kinase Lanthascreen Binding Assay:
A BTK kinase lanthascreen binding assay monitors compound binding to unphosphorylated-BTK kinase domain (UP-BTK), by competing with a fluorescent labeled tracer. […] Data were analyzed using Xlfit™ version 5.3 from ID Business Solutions (Guildford), Microsoft Excel add-in. pIC50 refers to the negative log of the IC50 in molar.

Chain of unphosphorylated-BTK kinase domain (UP-BTK), GST-tagged human BTK (389-659aa) (Q06187 389-659): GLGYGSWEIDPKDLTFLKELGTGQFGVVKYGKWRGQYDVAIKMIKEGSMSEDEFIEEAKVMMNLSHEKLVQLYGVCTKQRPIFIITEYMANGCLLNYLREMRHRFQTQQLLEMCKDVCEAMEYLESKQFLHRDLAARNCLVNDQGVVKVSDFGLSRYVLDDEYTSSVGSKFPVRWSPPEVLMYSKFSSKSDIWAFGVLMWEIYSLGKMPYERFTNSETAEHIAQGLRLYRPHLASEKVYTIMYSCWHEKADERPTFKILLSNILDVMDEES

Going from `C=CC(=O)N[C@H]1CCCC[C@H]1NC(=O)c1sc2nccc3c2c1NC(=O)N3c1ccc(OC2CCC2)nc1C` (single isomer, unassigned) [Example 242, N-((1R,2S)-2-Acrylamidocyclohexyl)-5-(*R)-(6-cyclobutoxy-2-methylpyridin-3-yl)-4-oxo-4,5-dihydro-3H-1-thia-3,5,8-triazaacenaphthylene-2-carboxamide] to `Cc1nc(Oc2ccccc2)ncc1N1C(=O)Nc2c(C(=O)N[C@@H]3CCC[C@@H]3N)sc3nccc1c23` (single isomer, unassigned) [Example 254, N-((1R,2S)-2-aminocyclopentyl)-5-(*)-(4-methyl-2-phenoxypyrimidin-5-yl)-4-oxo-4,5-dihydro-3H-1-thia-3,5,8-triazaacenaphthylene-2-carboxamide], the “BTK_I_binding pIC50” value falls from 7.04 to 6.55.

`CC(=O)N[C@H]1CCC[C@H](NC(=O)c2sc3nccc4c3c2NC(=O)N4c2ccc(Oc3ccccc3)cc2C)C1` (single isomer, unassigned) [Example 243, N-((1S,3S)-3-Acetamidocyclohexyl)-5-(*S)-(2-methyl-4-phenoxyphenyl)-4-oxo-4,5-dihydro-3H-1-thia-3,5,8-triazaacenaphthylene-2-carboxamide] and `CC(=O)N[C@H]1CC[C@@H](NC(=O)c2sc3nccc4c3c2NC(=O)N4c2ccc(Oc3ccccc3)cc2C)C1` (single isomer, unassigned) [Example 244, N-((1R,3S)-3-Acetamidocyclopentyl)-5-(*S)-(2-methyl-4-phenoxyphenyl)-4-oxo-4,5-dihydro-3H-1-thia-3,5,8-triazaacenaphthylene-2-carboxamide] are within 0.2 log units of each other in “BTK_I_binding pIC50” value: 6.85 for the first, 6.66 for the second.

`Cc1cc(Oc2ccccc2)ccc1N1C(=O)Nc2c(C(=O)N[C@H]3CCC[C@H](N)C3)sc3nccc1c23` (single isomer, unassigned) [Example 247, N-((1S,3S)-3-Aminocyclohexyl)-5-(*S)-(2-methyl-4-phenoxyphenyl)-4-oxo-4,5-dihydro-3H-1-thia-3,5,8-triazaacenaphthylene-2-carboxamide] and `CC(=O)N[C@H]1CCC[C@H](NC(=O)c2sc3nccc4c3c2NC(=O)N4c2ccc(Oc3ccccc3)cc2C)C1` (single isomer, unassigned) [Example 253, N-((1R,3S)-3-Acetamidocyclohexyl)-5-(*S)-(2-methyl-4-phenoxyphenyl)-4-oxo-4,5-dihydro-3H-1-thia-3,5,8-triazaacenaphthylene-2-carboxamide] are within 0.2 log units of each other in “BTK_I_binding pIC50” value: 6.66 for the first, 6.63 for the second.

`Cc1cc(Oc2ccccc2)ccc1N1C(=O)Nc2c(C(=O)N[C@H]3CCC[C@H](NC(=O)CN)C3)sc3nccc1c23` (single isomer, unassigned) [Example 251, N-((1R,3S)-3-(2-Aminoacetamido)cyclohexyl)-5-(*S)-(2-methyl-4-phenoxyphenyl)-4-oxo-4,5-dihydro-3H-1-thia-3,5,8-triazaacenaphthylene-2-carboxamide] and `Cc1cc(Oc2ccccc2)ccc1N1C(=O)Nc2c(C(=O)N[C@H]3CCC[C@H](NC(=O)CN(C)C)C3)sc3nccc1c23` (single isomer, unassigned) [Example 252, N-((1R,3S)-3-(2-(Dimethylamino)acetamido)cyclohexyl)-5-(*S)-(2-methyl-4-phenoxyphenyl)-4-oxo-4,5-dihydro-3H-1-thia-3,5,8-triazaacenaphthylene-2-carboxamide] are within 0.2 log units of each other in “BTK_I_binding pIC50” value: 6.71 for the first, 6.63 for the second.

With `Cc1cc(Oc2ccccc2)ncc1N1C(=O)Nc2c(C(=O)N[C@@H]3CCCC[C@H]3N)sc3nccc1c23` (single isomer, unassigned) [Example 255, N-((1R,2R)-2-Aminocyclohexyl)-5-(*S)-(4-methyl-6-phenoxypyridin-3-yl)-4-oxo-4,5-dihydro-3H-1-thia-3,5,8-triazaacenaphthylene-2-carboxamide] the “BTK_I_binding pIC50” value was 6.51.
